pIC50: −log10 of the molar value.
Test system: IGROV1 complex spheroids (HUVEC, MSC), viability % test/control
Assay: Anticancer human tumor IGROV1 cell line growth inhibition [GQUAD];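 note: spheroids exposed to compounds for 7 days before readout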
Conditions: for pIC50: curve of first compound; for viability, T/C: stronger effect = lower value
Source text: DNA G-quadruplex Stabilizer Agents in Combinations in Complex Spheroids
A high-throughput screen of multi-cell type tumor spheroids was designed to identify active combinations of DNA G-quadruplex stabilizer agents and targeted small molecules. Complex spheroids include a stromal component modeled by human endothelial cells (HUVEC) and fibroblasts modeled by human mesenchymal stem cells (MSCs). The concentration ranges selected for each drug and investigational agent were based upon clinically achievable concentrations if the clinical Cmax of the agent was known.
Compounds. The drugs and investigational agents: pidnarulex (CX-5461; NSC782164), APTO-253 (NSC789042), BRACO-19 (NSC847499), peposertib (NSC802822), ceralasertib (NSC780249), elimusertib (NSC800525), camonsertib (NSC841442), AZD-1390 (NSC803789), olaparib (NSC753686), talazoparib (NSC767125), ART-558 (NSC835418), sotorasib (NSC818433), MRTX-1133 (NSC836407), SN-38 (NSC673596), topotecan (NSC609699), etoposide (NSC141540), doxorubicin (NSC123127), gemcitabine (NSC613327), 5-fluorouracil (NSC19893), paclitaxel (NSC125973), vemurafenib (NSC761431), panobinostat (NSC761190), R-306465 (JNJ-16241199; NSC773264), adavosertib (NSC754352), TP-3654 (NSC805149), carboplatin (NSC241240), KSQ-4279 (NSC840948), and staurosporine (NSC755774) were obtained from the National Cancer Institute (NCI) Developmental Therapeutics Program Chemical Repository (34). The FDA-approved anticancer drug set is available from the NCI Developmental Therapeutics Program. […] The stock solutions were prepared in dimethyl sulfoxide (DMSO, Sigma-Aldrich, St. Louis, MO, cat. D2650) at 800-fold the tested concentration and stored at -70 degrees C prior to their use. All drugs and investigational agents were tested over a range starting from a high concentration at or near the clinical Cmax and decreasing in half-log increments. If the clinical Cmax for an agent had not been determined, the highest concentration tested was 10 microM.
2.3 Cell Culture. All cells were maintained in an incubator at 37 degrees C and 5% CO2 with 95% humidity. The PDC lines were cultured according to standard operating procedures established by the NCI PDMR. All PDCs were thawed and cultured in Matrigel-coated flasks prepared with a working solution of 1X Ham's F-12 nutrient mix, without supplementation (Invitrogen, cat. 11765054), 100 U/mL penicillin-streptomycin (Invitrogen, cat. 15140122), and 2.5% Matrigel (Corning Inc., cat. 354248) for the first three passages. The 857933-349-R-J2-PDC line was cultured in 6C/Colon 1B media, which includes advanced DMEM/F-12 (Thermo Fisher Scientific, cat. 12634028), 10 mM HEPES (Thermo Fisher Scientific, cat. 15630080), 1X GlutaMAX supplement (Thermo Fisher Scientific, cat. 35050061), 0.1 mg/mL primocin (InvivoGen, cat. ant-pm-2), 10% defined fetal bovine serum, heat inactivated (HyClone Laboratories Inc., cat. SH30070.03HI), 50% L-WRN conditioned media (ATCC, cat. CRL-3276), 1.25 mM N-Acetyl-L-cysteine (Sigma-Aldrich, cat. A9165), 10 mM nicotinamide (Sigma-Aldrich, cat. N0636), 1X B-27 supplement (Thermo Fisher Scientific, cat. 17504044), 1X N-2 supplement (Thermo Fisher Scientific, cat. 17502048), 10 microM Y-27632 dihydrochloride (Tocris Bioscience, cat. 1254), and 50 ng/mL human EGF recombinant protein (Thermo Fisher Scientific, cat. PHG0311). The 485176-168-R4-J1-PDC line was cultured in Panc media, which includes all 6C/Colon 1B media components plus 100 ng/mL human FGF-10 (Thermo Fisher Scientific, cat. 100-26), 500 nM SB-431542 (Selleckchem, cat. S1067), and gastrin (Tocris, cat. 3006).
[…]

[1] = second compound 0.0316 µM, first compound 0.0316 µM
[2] = second compound 0.0316 µM, first compound 0.316 µM
[3] = second compound 0.1 µM, first compound 0.0316 µM
[4] = second compound 0.1 µM, first compound 0.316 µM
[5] = second compound 0.316 µM, first compound 0.0316 µM
[6] = second compound 0.316 µM, first compound 0.316 µM
[7] = second compound 1 µM, first compound 0.0316 µM
[8] = second compound 1 µM, first compound 0.316 µM
[9] = second compound 3.16 µM, first compound 0.0316 µM
[10] = second compound 3.16 µM, first compound 0.316 µM
[11] = second compound 10 µM, first compound 0.0316 µM
[12] = second compound 10 µM, first compound 0.316 µM

COc1ncnc(C2CC2)c1-c1ncc2cnn(Cc3ccc(-c4nc(C(F)(F)F)cn4C(C)C)cc3)c2n1 + Cc1cnc(CNC(=O)c2c(=O)c3ccc(N4CCCN(C)CC4)nc3n3c2sc2ccccc23)cn1
pIC50 (second compound 0.0316 µM): 5.68 | pIC50 (second compound 0.1 µM): > 7.50 | pIC50 (second compound 0.316 µM): > 7.50 | pIC50 (second compound 1 µM): > 7.50 | pIC50 (second compound 3.16 µM): > 7.50 | pIC50 (second compound 10 µM): > 7.50 | viability, T/C [1]: 53.6% | viability, T/C (second compound 0.0316 µM, first compound 0.1 µM): 55.4% | viability, T/C [2]: 53% | viability, T/C (second compound 0.0316 µM, first compound 1 µM): 57.7% | viability, T/C (second compound 0.0316 µM, first compound 3.16 µM): 42.7% | viability, T/C (second compound 0.0316 µM, first compound 10 µM): 46.5% | viability, T/C [3]: 37.1% | viability, T/C (second compound 0.1 µM, first compound 0.1 µM): 39.4% | viability, T/C [4]: 33% | viability, T/C (second compound 0.1 µM, first compound 1 µM): 28.5% | viability, T/C (second compound 0.1 µM, first compound 3.16 µM): 35.5% | viability, T/C (second compound 0.1 µM, first compound 10 µM): 34.1% | viability, T/C [5]: 20.6% | viability, T/C (second compound 0.316 µM, first compound 0.1 µM): 25.6% | viability, T/C [6]: 26.9% | viability, T/C (second compound 0.316 µM, first compound 1 µM): 21.4% | viability, T/C (second compound 0.316 µM, first compound 3.16 µM): 21.7% | viability, T/C (second compound 0.316 µM, first compound 10 µM): 20.8% | viability, T/C [7]: 15.2% | viability, T/C (second compound 1 µM, first compound 0.1 µM): 13.8% | viability, T/C [8]: 11.1% | viability, T/C (second compound 1 µM, first compound 1 µM): 14.3% | viability, T/C (second compound 1 µM, first compound 3.16 µM): 15.8% | viability, T/C (second compound 1 µM, first compound 10 µM): 12.4% | viability, T/C [9]: 10.6% | viability, T/C (second compound 3.16 µM, first compound 0.1 µM): 8.57% | viability, T/C [10]: 9.08% | viability, T/C (second compound 3.16 µM, first compound 1 µM): 9.63% | viability, T/C (second compound 3.16 µM, first compound 3.16 µM): 9.64% | viability, T/C (second compound 3.16 µM, first compound 10 µM): 8.03% | viability, T/C [11]: 9.86% | viability, T/C (second compound 10 µM, first compound 0.1 µM): 9.33% | viability, T/C [12]: 8.36% | viability, T/C (second compound 10 µM, first compound 1 µM): 8.88% | viability, T/C (second compound 10 µM, first compound 3.16 µM): 10.2% | viability, T/C (second compound 10 µM, first compound 10 µM): 7.78%

Cc1[nH]c2ccccc2c1CCNCc1ccc(/C=C/C(=O)NO)cc1 + Cc1cnc(CNC(=O)c2c(=O)c3ccc(N4CCCN(C)CC4)nc3n3c2sc2ccccc23)cn1
pIC50 (second compound 0.0316 µM): 8.20 | pIC50 (second compound 0.1 µM): > 9.00 | pIC50 (second compound 0.316 µM): > 9.00 | pIC50 (second compound 1 µM): > 9.00 | pIC50 (second compound 3.16 µM): > 9.00 | pIC50 (second compound 10 µM): > 9.00 | viability, T/C (second compound 0.0316 µM, first compound 0.000999 µM): 65.9% | viability, T/C (second compound 0.0316 µM, first compound 0.00316 µM): 65.3% | viability, T/C (second compound 0.0316 µM, first compound 0.00999 µM): 38.7% | viability, T/C [1]: 21.5% | viability, T/C (second compound 0.0316 µM, first compound 0.0999 µM): 2.35% | viability, T/C [2]: 0.32% | viability, T/C (second compound 0.1 µM, first compound 0.000999 µM): 41.6% | viability, T/C (second compound 0.1 µM, first compound 0.00316 µM): 36.1% | viability, T/C (second compound 0.1 µM, first compound 0.00999 µM): 23.9% | viability, T/C [3]: 19.6% | viability, T/C (second compound 0.1 µM, first compound 0.0999 µM): 2.91% | viability, T/C [4]: 0.3% | viability, T/C (second compound 0.316 µM, first compound 0.000999 µM): 22.5% | viability, T/C (second compound 0.316 µM, first compound 0.00316 µM): 25.8% | viability, T/C (second compound 0.316 µM, first compound 0.00999 µM): 15.5% | viability, T/C [5]: 15% | viability, T/C (second compound 0.316 µM, first compound 0.0999 µM): 3.3% | viability, T/C [6]: 0.05% | viability, T/C (second compound 1 µM, first compound 0.000999 µM): 15.4% | viability, T/C (second compound 1 µM, first compound 0.00316 µM): 16.3% | viability, T/C (second compound 1 µM, first compound 0.00999 µM): 9.69% | viability, T/C [7]: 6.52% | viability, T/C (second compound 1 µM, first compound 0.0999 µM): 1.86% | viability, T/C [8]: 0.04% | viability, T/C (second compound 3.16 µM, first compound 0.000999 µM): 8.66% | viability, T/C (second compound 3.16 µM, first compound 0.00316 µM): 10.2% | viability, T/C (second compound 3.16 µM, first compound 0.00999 µM): 9.38% | viability, T/C [9]: 6% | viability, T/C (second compound 3.16 µM, first compound 0.0999 µM): 0.07% | viability, T/C [10]: 0.07% | viability, T/C (second compound 10 µM, first compound 0.000999 µM): 6.85% | viability, T/C (second compound 10 µM, first compound 0.00316 µM): 7.04% | viability, T/C (second compound 10 µM, first compound 0.00999 µM): 5.72% | viability, T/C [11]: 4.82% | viability, T/C (second compound 10 µM, first compound 0.0999 µM): 0.14% | viability, T/C [12]: 0.13%

Reference: PubChem BioAssay AID2060486 (Molecular Pharmacology Branch, DTP, NCI, 2025)
